Assay results: patent US9085576B2 (AMGEN INC., priority 2013, dated 2015)

Columns and labels:
[1] = biological target: Beta Secretase enzyme (BACE) (Homo sapiens (Human), UniProt P56817); assay: In vitro enzymatic BACE FRET assay; assay type: biochemical; conditions: read-out: BACE1 Enzyme assay IC50
BACE = BACE (Homo sapiens (Human), UniProt P56817); assay: In vitro BACE cell-based assay (Aβ40 in conditioned medium, sandwich ELISA)
Cathepsin D (Cat D) = Cathepsin D (Cat D) (Homo sapiens (Human), UniProt P07339); assay: In vitro enzymatic Cathepsin D (Cat D) FRET assay; assay type: biochemical; conditions: read-out: CatD IC50
Cathepsin D (Cat D), sequence (P07339 65-412, species assumed): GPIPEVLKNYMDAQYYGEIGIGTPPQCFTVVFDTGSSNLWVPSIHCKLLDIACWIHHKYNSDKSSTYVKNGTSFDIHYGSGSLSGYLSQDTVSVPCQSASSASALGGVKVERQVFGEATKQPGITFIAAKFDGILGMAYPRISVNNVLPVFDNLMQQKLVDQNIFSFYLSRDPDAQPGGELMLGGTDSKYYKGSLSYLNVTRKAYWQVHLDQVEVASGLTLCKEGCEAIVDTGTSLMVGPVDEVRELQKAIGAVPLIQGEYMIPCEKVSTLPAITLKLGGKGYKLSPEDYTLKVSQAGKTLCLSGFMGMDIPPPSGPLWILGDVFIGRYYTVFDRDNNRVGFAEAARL

BACE, sequence (P56817 46-501, species assumed): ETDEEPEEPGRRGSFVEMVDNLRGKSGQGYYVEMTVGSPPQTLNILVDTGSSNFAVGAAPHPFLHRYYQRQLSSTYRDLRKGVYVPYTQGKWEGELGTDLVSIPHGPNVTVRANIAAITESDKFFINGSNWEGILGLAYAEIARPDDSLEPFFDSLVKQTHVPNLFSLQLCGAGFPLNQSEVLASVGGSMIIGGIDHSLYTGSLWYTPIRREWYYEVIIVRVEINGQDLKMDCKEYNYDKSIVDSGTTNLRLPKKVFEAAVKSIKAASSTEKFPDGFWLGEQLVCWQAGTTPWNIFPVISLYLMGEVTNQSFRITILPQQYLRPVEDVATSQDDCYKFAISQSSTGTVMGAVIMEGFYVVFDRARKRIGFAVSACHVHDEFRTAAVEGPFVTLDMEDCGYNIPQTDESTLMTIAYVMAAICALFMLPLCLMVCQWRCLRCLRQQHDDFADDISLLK
Beta Secretase enzyme (BACE), sequence (P56817 46-501): as the sequence (P56817 46-501, species assumed) above

IC50 [1] [µM] | IC50 (BACE) [µM] | IC50 (Cathepsin D (Cat D)) [µM] | Compound
0.103 | 0.0116 | 512 | C[C@]1(c2nc(NC(=O)c3ncc(Cl)cc3Cl)ccc2F)N=C(N)O[C@@H]2C[C@@H]21 [Example 328, N-(6-((1R,5S,6R)-3-amino-5-methyl-2-oxa-4-azabicyclo[4.1.0]hept-3-en-5-yl)-5-fluoropyridin-2-yl)-3,5-dichloropicolinamide]
0.0335 | 0.0123 | 690 | Cc1cc(NC(=O)c2ncc(C#N)cc2F)cc([C@@]2(C(F)F)N=C(N)O[C@@H]3C[C@@H]32)c1F [Example 398, N-(3-((1R,5S,6R)-3-amino-5-(difluoromethyl)-2-oxa-4-azabicyclo[4.1.0]hept-3-en-5-yl)-4-fluoro-5-methylphenyl)-5-cyano-3-fluoropicolinamide]
0.0391 | 0.0145 | 352 | N#Cc1cnc(C(=O)Nc2ccc(Cl)c([C@@]3(CF)N=C(N)O[C@@H]4C[C@@H]43)c2)c(CO)c1 [Example 387, N-(3-((1R,5S,6R)-3-amino-5-(fluoromethyl)-2-oxa-4-azabicyclo[4.1.0]hept-3-en-5-yl)-4-chlorophenyl)-5-cyano-3-(hydroxymethyl)picolinamide]
0.0141 | 0.0222 | 252 | NC1=N[C@@](c2cc(NC(=O)c3ncc(Br)cc3C(F)F)ccc2F)(C(F)F)[C@H]2C[C@H]2O1 [Example 290, N-(3-((1R,5S,6R)-3-amino-5-(difluoromethyl)-2-oxa-4-azabicyclo[4.1.0]hept-3-en-5-yl)-4-fluorophenyl)-5-bromo-3-(difluoromethyl) picolinamide]
0.143 | 0.0274 | 1730 | COc1cnc(C(=O)Nc2ccc(Cl)c([C@@]3(CF)N=C(N)O[C@@H]4C[C@@H]43)c2)cn1 [Example 272]
0.117 | 0.0863 | 169 | COc1cnc2c(Nc3ccc(F)c([C@@]4(C(F)F)N=C(N)O[C@@H]5C[C@@H]54)c3)ncc(F)c2c1 [Example 448, (1R,5S,6R)-5-(difluoromethyl)-5-(2-fluoro-5-((5-fluoro-3-methoxy-1,7-naphthyridin-8-yl)amino)phenyl)-2-oxa-4-azabicyclo[4.1.0]hept-3-en-3-amine]
0.0759 | 0.861 | 8910 | NC1=N[C@@](c2cc(Nc3nccc4cc(C#CC5CC5)cnc34)ccc2F)(C(F)F)[C@H]2C[C@H]2O1 [Example 406, (1R,5S,6R)-5-(5-((3-(cyclopropylethynyl)-1,7-naphthyridin-8-yl)amino)-2-fluorophenyl)-5-(difluoromethyl)-2-oxa-4-azabicyclo[4.1.0]hept-3-en-3-amine]
0.224 | 0.122 | 596 | COc1cnc2c(Nc3ccc(F)c([C@@]4(C(F)F)N=C(N)O[C@@H]5C[C@@H]54)c3)ncnc2c1 [Example 364, (1R,5S,6R)-5-(difluoromethyl)-5-(2-fluoro-5-((7-methoxypyrido[3,2-d]pyrimidin-4-yl)amino)phenyl)-2-oxa-4-azabicyclo[4.1.0]hept-3-en-3-amine]
0.435 | 0.0416 | > 400 | COc1cnc(C(=O)Nc2cnc(F)c([C@]3(C)N=C(N)O[C@H]4C[C@H]43)c2)cn1 [Example 336, N-(5-((1(R,S),5(S,R),6(R,S))-3-amino-5-methyl-2-oxa-4-azabicyclo[4.1.0]hept-3-en-5-yl)-6-fluoropyridin-3-yl)-5-methoxypyrazine-2-carboxamide]
0.205 | 0.254 | > 44.4 | NC1=N[C@@](c2cc(Nc3nccc4nc(C(F)(F)F)cnc34)ccc2F)(C(F)F)[C@H]2C[C@H]2O1 [Example 365, (1R,5S,6R)-5-(difluoromethyl)-5-(2-fluoro-5-((2-(trifluoromethyl)pyrido[3,4-b]pyrazin-5-yl)amino)phenyl)-2-oxa-4-azabicyclo[4.1.0]hept-3-en-3-amine]

The remaining lines, values behind:

Compound | IC50 [1] [µM] | IC50 (BACE) [µM] | IC50 (Cathepsin D (Cat D)) [µM]
COCCC(=O)Nc1ccc(F)c([C@@]2(C(F)F)N=C(N)O[C@@H]3C[C@@H]32)c1 [Example 247, N-(3-((1R,5S,6R)-3-amino-5-(difluoromethyl)-2-oxa-4-azabicyclo[4.1.0]hept-3-en-5-yl)-4-fluorophenyl)-3-methoxypropanamide] | 25.5 | 4.34 | 486
NC1=N[C@@](c2cc(NC(=O)c3cnc(OCc4cnco4)cn3)ccc2F)(C(F)F)[C@H]2C[C@H]2O1 [Example 171, N-(3-((1R,5S,6R)-3-amino-5-(difluoromethyl)-2-oxa-4-azabicyclo[4.1.0]hept-3-en-5-yl)-4-fluorophenyl)-5-(oxazol-5-ylmethoxy)pyrazine-2-carboxamide] | 0.0811 | 0.323 | 846
NC1=N[C@@](c2cc(NC(=O)C3CCOCC3)ccc2F)(C(F)F)[C@H]2C[C@H]2O1 [Example 242] | > 40 | > 15.6 | 1910
NC1=N[C@](c2cc(NC(=O)c3ccc(Cl)cn3)ccc2F)(C(F)F)[C@@H]2C[C@@H]2O1 (racemic) [Example 55, N-(3-([1(R,S),5(S,R),6(R,S)]-3-amino-5-(difluoromethyl)-2-oxa-4-azabicyclo[4.1.0]hept-3-en-5-yl)-4-fluorophenyl)-5-chloropicolinamide] | 0.0362 | 0.0431 | 860
NC1=N[C@@](CF)(c2cc(NC(=O)c3ccc(Cl)cn3)ccc2F)[C@@H]2C[C@@H]2O1 [Example 118, N-(3-((1S,5R,6S)-3-amino-5-(fluoromethyl)-2-oxa-4-azabicyclo[4.1.0]hept-3-en-5-yl)-4-fluorophenyl)-5-chloropicolinamide] | 1.56 | 0.221 | 1280
COc1cc(C#N)cnc1C(=O)Nc1cc(Cl)c(F)c([C@@]2(CF)N=C(N)O[C@@H]3C[C@@H]32)c1 [Example 86, N-(3-((1R,5S,6R)-3-amino-5-(fluoromethyl)-2-oxa-4-azabicyclo[4.1.0]hept-3-en-5-yl)-5-chloro-4-fluorophenyl)-5-cyano-3-methoxypicolinamide] | 0.0759 | 0.0094 | 892
NC1=N[C@@](c2cc(NC(=O)C3CCCCC3)ccc2F)(C(F)F)[C@H]2C[C@H]2O1 [Example 239, N-(3-((1R,5S,6R)-3-amino-5-(difluoromethyl)-2-oxa-4-azabicyclo[4.1.0]hept-3-en-5-yl)-4-fluorophenyl) cyclohexanecarboxamide] | > 40 | > 15.6 | > 400
COC[C@]1(c2cc(NC(=O)c3cnc(OC)cn3)ccc2F)N=C(N)O[C@@H]2C[C@@H]21 [Example 80, N-(3-((1R,5S,6R)-3-amino-5-(methoxymethyl)-2-oxa-4-azabicyclo[4.1.0]hept-3-en-5-yl)-4-fluorophenyl)-5-methoxypyrazine-2-carboxamide] | 7.95 | 0.183 | > 400
COC[C@@]1(c2cc(NC(=O)c3cnc(OC)cn3)ccc2F)N=C(N)O[C@H]2C[C@H]21 [Example 81, N-(3-((1S,5R,6S)-3-amino-5-(methoxymethyl)-2-oxa-4-azabicyclo[4.1.0]hept-3-en-5-yl)-4-fluorophenyl)-5-methoxypyrazine-2-carboxamide] | > 40 | > 15.6 | > 400
